Article PMC7827085 (Pharmaceutics, 2021)
Like-named read-outs stand apart in the source and are kept apart here.

How the values were obtained:
[1] = target: T1, ABCG2/BCRP (Homo sapiens, UniProt Q9UNQ0); experiment: in vitro; conditions: read-out: Estimated Transporter Inhibition IC50, ABCG2 cellular assay; PhenGreen-DA extrusion, PLB-985/ABCG2 cells; relative to 2.5 µM Ko143; '-' = no inhibition
T1 sequence (Q9UNQ0 1-655): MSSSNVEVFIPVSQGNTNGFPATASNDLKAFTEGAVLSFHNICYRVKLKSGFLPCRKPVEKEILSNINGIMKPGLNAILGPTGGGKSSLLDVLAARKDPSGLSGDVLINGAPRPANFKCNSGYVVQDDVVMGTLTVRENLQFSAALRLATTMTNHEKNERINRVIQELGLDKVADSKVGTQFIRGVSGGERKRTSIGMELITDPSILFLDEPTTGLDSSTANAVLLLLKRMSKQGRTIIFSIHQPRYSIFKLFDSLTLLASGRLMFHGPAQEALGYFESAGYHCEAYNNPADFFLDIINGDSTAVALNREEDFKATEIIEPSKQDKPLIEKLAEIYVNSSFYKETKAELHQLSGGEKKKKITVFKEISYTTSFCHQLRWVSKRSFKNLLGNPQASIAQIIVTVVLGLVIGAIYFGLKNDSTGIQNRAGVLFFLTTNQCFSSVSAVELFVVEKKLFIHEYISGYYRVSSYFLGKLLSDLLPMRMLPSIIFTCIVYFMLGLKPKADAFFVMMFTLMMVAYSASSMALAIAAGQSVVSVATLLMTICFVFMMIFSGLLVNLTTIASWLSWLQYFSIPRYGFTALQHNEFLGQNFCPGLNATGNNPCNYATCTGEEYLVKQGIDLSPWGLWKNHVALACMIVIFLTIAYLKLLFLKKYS
Procedure: (§1) For the ABC transporter assays, we used both cell-based and membrane-based functional assays. […] The respective transport activities were assayed by measuring the cellular fluorescence of the respective transported substrates Phengreen (ABCG2) and Calcein (ABCB1 and ABCC1).
(§2) The cells were kept on ice until the flow cytometry measurements. All experiments were performed in triplicate and in at least three biological parallels. […] The PhenGreen (PG) or Calcein signal was detected in the BL1 channel (emission filter: 530/30 nm). Analysis of the data was carried out by the Attune Nxt Cytometer Software v3.1.2 (Thermo Fischer Scientific, Waltham, MA, USA). The inhibition of transporter activity was calculated by comparing the fluorescence in the presence of the test compound to that in the presence of a specific inhibitor providing maximum inhibition. […] Half-maximum inhibition (IC50) values were calculated by using the Origin2019 software (9.6.5.169, OriginLab Corporation, Northampton, MA, USA). […] In these experiments, we measured Hoechst dye extrusion in HeLa cells stably expressing eGFP and the ABCG2 variants driven by the same promoter—the transgenic cells generated by the Sleeping Beauty transposon system. […] For details, see Zámbó et al.). […] The maximum inhibition was defined for each variant as the fluorescence difference of the samples incubated with and without Ko143, respectively. […] Data analysis was performed using the Attune Nxt Cytometer Software v3.1.2. Two samples per condition and three biological replicates were examined in each experiment.
Here, we used both PhenGreen-SK diacetate and Hst dye for these measurements. The PhenGreen (PG) assay is a recently patented method applied for ensuring an efficient ABCG2 transport measurement, as the non-fluorescent PhenGreen diacetate (PG-DA) is actively extruded by ABCG2 and the cellular fluorescence is correlated with ABCG2 transport activity. Therefore, we applied this assay to characterize the test drug interactions in intact PLB-985 cells expressing high levels of the ABCG2 protein. […] ABCG2 inhibition by the test compounds was estimated by their relative (%) inhibition compared to full inhibition by Ko143.

[2] = target: T2, OATP2B1 (Homo sapiens, UniProt O94956); conditions: read-out: Estimated Transporter Inhibition IC50, OATP2B1 cellular assay; 20 µM pyranine uptake, 15 min, pH 5.5, A431-OATP2B1 cells; '-' = no interaction
T2 sequence (O94956 1-709): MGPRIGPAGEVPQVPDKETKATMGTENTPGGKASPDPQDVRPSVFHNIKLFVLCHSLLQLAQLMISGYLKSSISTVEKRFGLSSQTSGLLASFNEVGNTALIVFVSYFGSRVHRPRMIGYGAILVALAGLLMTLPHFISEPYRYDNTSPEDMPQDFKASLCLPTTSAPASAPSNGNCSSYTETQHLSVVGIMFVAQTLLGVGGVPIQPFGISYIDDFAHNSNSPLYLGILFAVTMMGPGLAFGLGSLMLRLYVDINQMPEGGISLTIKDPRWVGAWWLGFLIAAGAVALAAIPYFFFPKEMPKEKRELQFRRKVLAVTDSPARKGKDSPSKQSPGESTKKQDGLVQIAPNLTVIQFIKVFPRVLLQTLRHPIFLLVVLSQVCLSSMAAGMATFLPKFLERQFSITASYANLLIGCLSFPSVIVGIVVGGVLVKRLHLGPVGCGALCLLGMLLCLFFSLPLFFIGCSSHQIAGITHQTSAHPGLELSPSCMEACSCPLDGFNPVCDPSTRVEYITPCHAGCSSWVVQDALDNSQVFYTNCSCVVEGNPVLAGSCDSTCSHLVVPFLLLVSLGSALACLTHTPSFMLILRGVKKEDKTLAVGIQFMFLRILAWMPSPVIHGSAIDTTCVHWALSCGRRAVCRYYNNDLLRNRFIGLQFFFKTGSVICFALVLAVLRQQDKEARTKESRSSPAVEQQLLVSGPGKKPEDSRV

[3] = target: T3, ABCB1/MDR1/Pgp (Homo sapiens, UniProt P08183); experiment: in vitro; conditions: read-out: Estimated Transporter Inhibition IC50, ABCB1 cellular assay; Calcein-AM extrusion, PLB-985/ABCB1 cells; relative to full inhibition by 0.25 µM tariquidar; '-' = no significant inhibition
Procedure: as §1
The cells were kept on ice until the flow cytometry measurements. All experiments were performed in triplicate and in at least three biological parallels.
as §2
ABCB1 is a high-affinity active efflux transporter of the viability dye Calcein-AM (CaAM). […] Here, we applied this widely used cellular assay (see https://www.solvobiotech.com/services/categories/dye-efflux-assays) to characterize drug interactions of the applied compounds in intact PLB-985 cells, expressing high levels of the ABCB1 protein.

[4] = target: T3, ABCB1/MDR1/Pgp; conditions: read-out: Estimated Transporter Inhibition IC50, ABCB1 vesicular assay; ATP-dependent NMQ uptake, HEK-293/ABCB1 inverted membrane vesicles; '-' = no inhibition
[5] = system: SARS-CoV-2; conditions: cited from earlier work
[6] = system: OATP2B1; set-up: method as in PMID 22541068; conditions: 20 µM ivermectin, different test substrate; cited from earlier work
[7] = target: T1, ABCG2/BCRP; experiment: in vitro; conditions: read-out: Estimated Transporter Inhibition IC50, ABCG2 vesicular assay; ATP-dependent lucifer yellow uptake, HEK-293/ABCG2 vesicles; relative to 1 µM Ko143; '-' = no inhibition
Procedure: These were employed at 37 °C for 10 min (ABCG2), 1 min (ABCB1), or 3 min (ABCC1), with or without 4 mM Mg-ATP, in a 50 μL final volume. The known reference inhibitors of the transporters (1 µM Ko143 for ABCG2, 1 µM Valspodar for ABCB1, and 200 µM Benzbromarone for ABCC1) served as controls. Each test compound was dissolved in DMSO and a 1 µL volume was added to the samples. After incubation, the samples were filtered and washed, and the substrates in the vesicles were dissolved in 10% SDS and transferred onto another plate. After the addition of a stabilizer, the fluorescence was measured in plate readers (Victor X3 and Enspire Perkin-Elmer, Waltham, MA, USA), while the activity of the radiolabeled substrate was measured by liquid scintillation counting (Perkin Elmer MicroBeta2 liquid scintillation counter, Perkin Elmer, Waltham, MA, USA). ABC transporter-related vesicular transport was calculated by subtracting uptake measured in the presence of Mg-AMP from the values measured in the presence of Mg-ATP.
The effects of the test compounds on ABCG2 activity were also measured in a vesicular transport assay by using inverted membrane vesicles prepared from HEK-293 cells expressing high levels of the ABCG2 transporter.

T3 sequence (P08183 whole entry): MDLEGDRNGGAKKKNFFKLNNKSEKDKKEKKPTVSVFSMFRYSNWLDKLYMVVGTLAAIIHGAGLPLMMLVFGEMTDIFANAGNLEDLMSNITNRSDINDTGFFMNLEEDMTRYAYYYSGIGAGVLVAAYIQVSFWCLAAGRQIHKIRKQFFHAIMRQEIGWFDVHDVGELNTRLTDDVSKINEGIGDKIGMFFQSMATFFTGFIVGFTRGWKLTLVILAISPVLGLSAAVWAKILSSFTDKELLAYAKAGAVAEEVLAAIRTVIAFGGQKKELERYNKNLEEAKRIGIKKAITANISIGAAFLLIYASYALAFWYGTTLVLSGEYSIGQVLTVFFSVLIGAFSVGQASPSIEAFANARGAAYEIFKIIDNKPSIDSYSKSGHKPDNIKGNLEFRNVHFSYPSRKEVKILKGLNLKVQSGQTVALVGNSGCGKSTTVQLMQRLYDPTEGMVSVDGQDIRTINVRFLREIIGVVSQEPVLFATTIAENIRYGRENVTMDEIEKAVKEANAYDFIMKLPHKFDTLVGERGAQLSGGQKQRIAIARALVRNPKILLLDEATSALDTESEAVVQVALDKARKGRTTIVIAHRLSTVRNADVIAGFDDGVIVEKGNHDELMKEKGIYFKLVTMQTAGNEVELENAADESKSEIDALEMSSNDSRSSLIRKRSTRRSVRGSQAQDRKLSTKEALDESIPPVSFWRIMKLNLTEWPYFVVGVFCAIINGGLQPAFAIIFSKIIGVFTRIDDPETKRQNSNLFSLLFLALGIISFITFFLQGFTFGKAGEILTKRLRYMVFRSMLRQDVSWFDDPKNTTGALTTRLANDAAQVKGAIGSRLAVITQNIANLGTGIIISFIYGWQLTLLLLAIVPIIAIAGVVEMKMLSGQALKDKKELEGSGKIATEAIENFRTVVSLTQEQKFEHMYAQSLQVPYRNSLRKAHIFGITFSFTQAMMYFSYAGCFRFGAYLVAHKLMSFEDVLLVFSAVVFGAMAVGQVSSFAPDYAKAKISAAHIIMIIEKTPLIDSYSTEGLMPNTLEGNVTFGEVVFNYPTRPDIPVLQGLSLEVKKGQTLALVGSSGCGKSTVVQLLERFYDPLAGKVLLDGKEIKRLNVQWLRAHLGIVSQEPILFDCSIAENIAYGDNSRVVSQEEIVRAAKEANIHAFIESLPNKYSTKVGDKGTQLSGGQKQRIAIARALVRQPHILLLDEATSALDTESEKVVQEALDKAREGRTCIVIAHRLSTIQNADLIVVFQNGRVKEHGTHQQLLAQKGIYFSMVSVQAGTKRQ

## ivermectin
[1]
  IC50: 3100 nM
[2]
  IC50: 8600 nM
[3]
  IC50: 600 nM
[4]
  IC50: 300 nM
[5]
  Plasma concentrations required to reach an in vitro antiviral efficacy: 2 to 10 µM
[6]
  OATP2B1 inhibition found by Karlgren et al.: 39%
[7]
  IC50: 1100 nM
